Laboratory results: patent publication US20250205344A1, “2,4-DIOXOTETRAHYDROPYRIMIDINYL DERATIVES AS DEGRONS IN PROTACS” (GLAXOSMITHKLINE INTELLECTUAL PROPERTY DEVELOPMENT LIMITED, priority 2022, published 2025)
Where a name gives a salt, the structure may show the parent alone.

Biological target: T1, Androgen Receptor (Homo sapiens, UniProt P10275, T878A)
T1 construct: the AR gene was modified, using CRISPR/Cas9 editing, so the expressed AR protein included an 11 amino acid HiBiT tag; endogenous in cells; host or cells: clonal LnCaP-derived line, AR gene edited by CRISPR/Cas9
T1 sequence (P10275 whole entry T878A): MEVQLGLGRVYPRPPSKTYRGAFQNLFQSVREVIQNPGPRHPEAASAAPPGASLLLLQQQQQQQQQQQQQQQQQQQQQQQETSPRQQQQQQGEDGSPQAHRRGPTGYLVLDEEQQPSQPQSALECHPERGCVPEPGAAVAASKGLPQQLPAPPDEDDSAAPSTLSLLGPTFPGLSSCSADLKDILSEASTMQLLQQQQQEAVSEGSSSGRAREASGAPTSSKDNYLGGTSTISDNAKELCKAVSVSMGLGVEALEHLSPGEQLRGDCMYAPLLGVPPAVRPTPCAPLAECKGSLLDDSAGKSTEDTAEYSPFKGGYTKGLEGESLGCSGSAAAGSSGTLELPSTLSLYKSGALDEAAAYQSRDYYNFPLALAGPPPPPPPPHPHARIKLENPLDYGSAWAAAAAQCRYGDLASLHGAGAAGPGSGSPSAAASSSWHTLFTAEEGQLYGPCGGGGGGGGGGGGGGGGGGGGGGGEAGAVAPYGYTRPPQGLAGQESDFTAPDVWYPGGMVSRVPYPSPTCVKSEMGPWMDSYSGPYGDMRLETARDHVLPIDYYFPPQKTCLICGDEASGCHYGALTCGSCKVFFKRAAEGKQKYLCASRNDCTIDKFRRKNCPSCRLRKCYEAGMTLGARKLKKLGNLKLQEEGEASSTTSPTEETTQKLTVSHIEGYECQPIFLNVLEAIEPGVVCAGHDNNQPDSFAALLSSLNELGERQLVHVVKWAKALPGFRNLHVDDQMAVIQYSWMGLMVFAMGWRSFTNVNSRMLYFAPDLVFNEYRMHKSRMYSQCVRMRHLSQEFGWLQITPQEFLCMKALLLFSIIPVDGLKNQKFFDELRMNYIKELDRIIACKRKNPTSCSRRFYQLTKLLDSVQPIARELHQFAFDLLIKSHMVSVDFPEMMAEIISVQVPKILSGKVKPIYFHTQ
T1 sequence (Q96SW2 whole entry partner): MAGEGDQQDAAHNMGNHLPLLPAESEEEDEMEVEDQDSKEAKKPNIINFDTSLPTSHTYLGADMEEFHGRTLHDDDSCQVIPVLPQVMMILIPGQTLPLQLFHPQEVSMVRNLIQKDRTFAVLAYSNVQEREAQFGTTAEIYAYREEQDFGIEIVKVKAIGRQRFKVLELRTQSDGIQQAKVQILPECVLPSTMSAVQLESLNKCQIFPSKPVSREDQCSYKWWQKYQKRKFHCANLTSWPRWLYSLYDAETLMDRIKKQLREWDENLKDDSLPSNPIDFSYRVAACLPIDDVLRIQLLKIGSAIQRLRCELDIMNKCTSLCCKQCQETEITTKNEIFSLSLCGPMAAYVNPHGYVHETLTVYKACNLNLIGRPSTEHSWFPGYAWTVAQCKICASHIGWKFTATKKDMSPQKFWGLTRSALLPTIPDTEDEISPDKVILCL
T1 sequence (Q16531 whole entry partner): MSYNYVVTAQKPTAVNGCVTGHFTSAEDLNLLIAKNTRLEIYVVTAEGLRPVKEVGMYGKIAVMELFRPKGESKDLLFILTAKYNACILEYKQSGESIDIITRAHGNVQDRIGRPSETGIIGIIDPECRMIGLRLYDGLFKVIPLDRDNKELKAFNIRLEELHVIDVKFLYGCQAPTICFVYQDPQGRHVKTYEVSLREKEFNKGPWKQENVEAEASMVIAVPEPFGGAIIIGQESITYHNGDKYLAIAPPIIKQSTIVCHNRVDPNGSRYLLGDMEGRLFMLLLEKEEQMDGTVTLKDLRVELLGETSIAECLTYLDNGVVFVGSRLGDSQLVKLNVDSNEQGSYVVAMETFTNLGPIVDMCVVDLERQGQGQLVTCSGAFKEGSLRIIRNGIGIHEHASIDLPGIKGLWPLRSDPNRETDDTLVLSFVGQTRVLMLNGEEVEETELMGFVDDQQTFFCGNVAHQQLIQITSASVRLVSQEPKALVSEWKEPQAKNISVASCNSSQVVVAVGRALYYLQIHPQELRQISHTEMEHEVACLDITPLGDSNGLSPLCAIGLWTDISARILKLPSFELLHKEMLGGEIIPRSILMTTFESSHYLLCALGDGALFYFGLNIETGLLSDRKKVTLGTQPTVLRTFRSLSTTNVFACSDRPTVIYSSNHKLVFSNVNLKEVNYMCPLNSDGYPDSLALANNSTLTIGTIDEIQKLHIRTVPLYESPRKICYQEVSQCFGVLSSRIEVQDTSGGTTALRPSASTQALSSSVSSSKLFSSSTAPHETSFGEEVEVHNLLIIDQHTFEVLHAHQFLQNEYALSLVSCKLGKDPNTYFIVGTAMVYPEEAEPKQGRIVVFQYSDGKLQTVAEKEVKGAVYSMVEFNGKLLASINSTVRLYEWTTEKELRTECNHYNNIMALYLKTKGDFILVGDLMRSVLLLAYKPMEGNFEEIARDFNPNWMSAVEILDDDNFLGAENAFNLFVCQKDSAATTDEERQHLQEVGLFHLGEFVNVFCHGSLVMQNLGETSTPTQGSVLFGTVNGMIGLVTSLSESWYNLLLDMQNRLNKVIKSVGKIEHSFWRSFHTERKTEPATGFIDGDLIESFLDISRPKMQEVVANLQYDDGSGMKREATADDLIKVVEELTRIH
Test: Androgen Receptor Degradation Assay (Nano-Glo HiBiT)
Format: cell-based
Settings: HiBiT-tagged AR in human LnCaP cells, 18 h
Method in brief: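 LnCaP cells with CRISPR-knocked-in N-terminal HiBiT-tagged AR (10,000/well) treated 18 h at 37 °C with PROTACs over 11 threefold concentrations; lytic HiBiT luminescence normalised to DMSO (0%) and cell-free (100%) controls. Relative DC50 = 4-parameter fit inflection; absolute DC50 = 50% degradation interpolation; Dmax = maximum observed degradation.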

Row | mean relative pDC50 | SMILES
1 | 5.54 | CC1(C)[C@H](NC(=O)c2ncc(N3CCC(CN4CCC(n5ncc6c(N7CCC(=O)NC7=O)cccc65)CC4)CC3)cn2)C(C)(C)[C@H]1Oc1cnc(C#N)c(Cl)c1 [EAR268, N-((1r,3r)-3-((5-Chloro-6-cyanopyridin-3-yl)oxy)-2,2,4,4-tetramethylcyclobutyl)-5-(4-((4-(4-(2,4-dioxotetrahydropyrimidin-1(2H)-yl)-1H-indazol-1-yl)piperidin-1-yl)methyl)piperidin-1-yl)pyrimidine-2-carboxamide]

Same assay, conditions: LNCaP, 18 h, HiBiT-tagged AR in human LnCaP cells, read-out: mean asymptote max

Row | Dmax [%] | SMILES
2 | ≥ 50 | CC(C)n1ccc2c(N3CCC(=O)NC3=O)cc(C(=O)N3CCN(c4ccc(C(=O)N[C@H]5CC[C@H](Oc6ccc(C#N)c(Cl)c6)CC5)nn4)CC3)cc21 [EAR77, N-((1r,4r)-4-(3-Chloro-4-cyanophenoxy)cyclohexyl)-6-(4-(4-(2,4-dioxotetrahydropyrimidin-1(2H)-yl)-1-isopropyl-1H-indole-6-carbonyl)piperazin-1-yl)pyridazine-3-carboxamide]
3 | ≥ 50 | N#Cc1ccc(O[C@H]2CC[C@H](NC(=O)c3ccc(N4CCC(CCN5CCC(n6ccc7c(N8CCC(=O)NC8=O)cccc76)CC5)CC4)nn3)CC2)cc1Cl [EAR57, N-((1r,4r)-4-(3-Chloro-4-cyanophenoxy)cyclohexyl)-6-(4-(2-(4-(4-(2,4-dioxotetrahydropyrimidin-1(2H)-yl)-1H-indol-1-yl)piperidin-1-yl)ethyl)piperidin-1-yl)pyridazine-3-carboxamide hydrochloride]
4 | ≥ 50 | N#Cc1ccc(O[C@H]2CC[C@H](NC(=O)c3ccc(N4CCC(CN5CCC[C@@](F)(Cn6ccc7c(N8CCC(=O)NC8=O)cccc76)C5)CC4)nn3)CC2)cc1Cl [EAR159, N-((1r,4r)-4-(3-Chloro-4-cyanophenoxy)cyclohexyl)-6-(4-(((S)-3-((4-(2,4-dioxotetrahydropyrimidin-1(2H)-yl)-1H-indol-1-yl)methyl)-3-fluoropiperidin-1-yl)methyl)piperidin-1-yl)pyridazine-3-carboxamide]
5 | ≥ 50 | N#Cc1ccc(O[C@H]2CC[C@H](NC(=O)c3ccc(N4CCN(C[C@H]5CC[C@H](n6ccc7c(N8CCC(=O)NC8=O)cccc76)CC5)CC4)nn3)CC2)cc1Cl [AR215, N-((1r,4r)-4-(3-Chloro-4-cyanophenoxy)cyclohexyl)-6-(4-(((1r,4r)-4-(4-(2,4-dioxotetrahydropyrimidin-1(2H)-yl)-1H-indol-1-yl)cyclohexyl)methyl)piperazin-1-yl)pyridazine-3-carboxamide hydrochloride]
6 | ≥ 50 | N#Cc1ccc(O[C@H]2CC[C@H](NC(=O)c3ccc(N4CCC5(CC4)CC(N4CCC(n6ccc7c(N8CCC(=O)NC8=O)cccc76)CC4)C5)nn3)CC2)cc1Cl [EAR193, N-((1r,4r)-4-(3-Chloro-4-cyanophenoxy)cyclohexyl)-6-(2-(4-(4-(2,4-dioxotetrahydropyrimidin-1(2H)-yl)-1H-indol-1-yl)piperidin-1-yl)-7-azaspiro[3.5]nonan-7-yl)pyridazine-3-carboxamide]
7 | ≥ 50 | CC(C)n1ccc2c(N3CCC(=O)NC3=O)cc(C(=O)N3CCN(CC4CCN(c5ccc(C(=O)N[C@H]6CC[C@H](Oc7ccc(C#N)c(Cl)c7)CC6)cn5)CC4)CC3)cc21 [EAR80, N-((1r,4r)-4-(3-Chloro-4-cyanophenoxy)cyclohexyl)-6-(4-((4-(4-(2,4-dioxotetrahydropyrimidin-1(2H)-yl)-1-isopropyl-1H-indole-6-carbonyl)piperazin-1-yl)methyl)piperidin-1-yl)nicotinamide]
8 | ≥ 50 | N#Cc1ccc(O[C@H]2CC[C@H](NC(=O)c3ccc(N4CCO[C@H](CN5CCC(n6ccc7c(N8CCC(=O)NC8=O)cccc76)CC5)C4)nn3)CC2)cc1Cl [EAR123, N-((1r,4R)-4-(3-Chloro-4-cyanophenoxy)cyclohexyl)-6-((R)-2-((4-(4-(2,4-dioxotetrahydropyrimidin-1(2H)-yl)-1H-indol-1-yl)piperidin-1-yl)methyl)morpholino)pyridazine-3-carboxamide]
9 | ≥ 50 | CC1(C)[C@H](NC(=O)c2ncc(N3CCC(CN4CCC(n5ccc6c(N7CCC(=O)NC7=O)ccnc65)CC4)CC3)cn2)C(C)(C)[C@H]1Oc1cnc(C#N)c(Cl)c1 [EAR269, N-((1r,3r)-3-((5-Chloro-6-cyanopyridin-3-yl)oxy)-2,2,4,4-tetramethylcyclobutyl)-5-(4-((4-(4-(2,4-dioxotetrahydropyrimidin-1(2H)-yl)-1H-pyrrolo[2,3-b]pyridin-1-yl)piperidin-1-yl)methyl)piperidin-1-yl)pyrimidine-2-carboxamide]
10 | ≥ 50 | N#Cc1ccc(O[C@H]2CC[C@H](NC(=O)c3ccc(N4CCC(CN5CC[C@@H](n6ccc7c(N8CCC(=O)NC8=O)cccc76)[C@H](F)C5)CC4)nn3)CC2)cc1Cl [EAR144, N-((1r,4r)-4-(3-Chloro-4-cyanophenoxy)cyclohexyl)-6-(4-(((3R,4R)-4-(4-(2,4-dioxotetrahydropyrimidin-1(2H)-yl)-1H-indol-1-yl)-3-fluoropiperidin-1-yl)methyl)piperidin-1-yl)pyridazine-3-carboxamide, hydrochloride]
11 | ≥ 50 | N#Cc1ccc(O[C@H]2CC[C@H](NC(=O)c3ccc(N4CCC(OCCN5CCC(n6ncc7c(N8CCC(=O)NC8=O)cccc76)CC5)CC4)nn3)CC2)cc1Cl [EAR231, N-((1r,4r)-4-(3-chloro-4-cyanophenoxy)cyclohexyl)-6-(4-(2-(4-(4-(2,4-dioxotetrahydropyrimidin-1(2H)-yl)-1H-indazol-1-yl)piperidin-1-yl)ethoxy)piperidin-1-yl)pyridazine-3-carboxamide]
12 | ≥ 50 | N#Cc1ccc(O[C@H]2CC[C@H](NC(=O)c3cnc(N4CCC(C(=O)N5CCC(n6ccc7c(N8CCC(=O)NC8=O)cccc76)CC5)CC4)nc3)CC2)cc1C(F)(F)F [EAR68, N-((1r,4r)-4-(4-Cyano-3-(trifluoromethyl)phenoxy)cyclohexyl)-2-(4-(4-(4-(2,4-dioxotetrahydropyrimidin-1(2H)-yl)-1H-indol-1-yl)piperidine-1-carbonyl)piperidin-1-yl)pyrimidine-5-carboxamide]
13 | ≥ 50 | N#Cc1ccc(O[C@H]2CC[C@H](NC(=O)c3ccc(N4CCC(CN5CCC(n6ncc7c(N8CCC(=O)NC8=O)cccc76)CC5)CC4)nn3)CC2)cc1C(F)(F)F [EAR44, N-((1r,4r)-4-(4-Cyano-3-(trifluoromethyl)phenoxy)cyclohexyl)-6-(4-((4-(4-(2,4-dioxotetrahydropyrimidin-1(2H)-yl)-1H-indazol-1-yl)piperidin-1-yl)methyl)piperidin-1-yl)pyridazine-3-carboxamide]
14 | ≥ 50 | N#Cc1ccc(O[C@H]2CC[C@H](NC(=O)c3ccc(N4CCC[C@H](CN5CCC(n6ccc7c(N8CCC(=O)NC8=O)cccc76)CC5)C4)nn3)CC2)cc1Cl [EAR142, N-((1r,4R)-4-(3-chloro-4-cyanophenoxy)cyclohexyl)-6-((R)-3-((4-(4-(2,4-dioxotetrahydropyrimidin-1(2H)-yl)-1H-indol-1-yl)piperidin-1-yl)methyl)piperidin-1-yl)pyridazine-3-carboxamide]
15 | ≥ 50 | N#Cc1ccc(O[C@H]2CC[C@H](NC(=O)c3ccc(N4CCC(CN5CCC(n6ccc7c(N8CCC(=O)NC8=O)cccc76)CC5)CC4)cc3F)CC2)cc1Cl [EAR187, N-((1r,4r)-4-(3-Chloro-4-cyanophenoxy)cyclohexyl)-4-(4-((4-(4-(2,4-dioxotetrahydropyrimidin-1(2H)-yl)-1H-indol-1-yl)piperidin-1-yl)methyl)piperidin-1-yl)-2-fluorobenzamide]
16 | ≥ 50 | N#Cc1ccc(O[C@H]2CC[C@H](NC(=O)c3ccc(N4CCC(CN5CCC(n6ncc7c(N8CCC(=O)NC8=O)cc(F)cc76)CC5)CC4)nn3)CC2)cc1Cl [EAR33, N-((1r,4r)-4-(3-Chloro-4-cyanophenoxy)cyclohexyl)-6-(4-((4-(4-(2,4-dioxotetrahydropyrimidin-1(2H)-yl)-6-fluoro-1H-indazol-1-yl)piperidin-1-yl)methyl)piperidin-1-yl)pyridazine-3-carboxamide]
17 | ≥ 50 | N#Cc1ccc(O[C@H]2CC[C@H](NC(=O)c3ccc(N4CCCC(CN5CCC(n6ncc7c(N8CCC(=O)NC8=O)cccc76)CC5)C4)nn3)CC2)cc1Cl (stereo partly drawn) [EAR36, N-((1r,4r)-4-(3-Chloro-4-cyanophenoxy)cyclohexyl)-6-(3-((4-(4-(2,4-dioxotetrahydropyrimidin-1(2H)-yl)-1H-indazol-1-yl)piperidin-1-yl)methyl)piperidin-1-yl)pyridazine-3-carboxamide]
18 | ≥ 50 | CC1(C)[C@H](NC(=O)c2ncc(N3CCC(CN4CCC(n5ncc6c(N7CCC(=O)NC7=O)cccc65)CC4)CC3)cn2)C(C)(C)[C@H]1Oc1cnc(C#N)c(Cl)c1 [EAR268, N-((1r,3r)-3-((5-Chloro-6-cyanopyridin-3-yl)oxy)-2,2,4,4-tetramethylcyclobutyl)-5-(4-((4-(4-(2,4-dioxotetrahydropyrimidin-1(2H)-yl)-1H-indazol-1-yl)piperidin-1-yl)methyl)piperidin-1-yl)pyrimidine-2-carboxamide]
19 | ≥ 50 | N#Cc1ccc(O[C@H]2CC[C@H](NC(=O)c3cnc(N4CCC(CN5CCC(n6ccc7c(N8CCC(=O)NC8=O)cccc76)CC5)CC4)cn3)CC2)cc1Cl [EAR9, N-((1r,4r)-4-(3-Chloro-4-cyanophenoxy)cyclohexyl)-5-(4-((4-(4-(2,4-dioxotetrahydropyrimidin-1(2H)-yl)-1H-indol-1-yl)piperidin-1-yl)methyl)piperidin-1-yl)pyrazine-2-carboxamide]

Row | SMILES | Dmax [%]
20 | CN(c1ccc(C#N)c(Cl)c1)[C@H]1CC[C@H](NC(=O)c2ccc(N3CCC(CN4CCC(n5ccc6c(N7CCC(=O)NC7=O)cc(F)cc65)CC4)CC3)nn2)CC1 [EAR201, N-((1r,4r)-4-((3-Chloro-4-cyanophenyl)(methyl)amino)cyclohexyl)-6-(4-((4-(4-(2,4-dioxotetrahydropyrimidin-1(2H)-yl)-6-fluoro-1H-indol-1-yl)piperidin-1-yl)methyl)piperidin-1-yl)pyridazine-3-carboxamide hydrochloride] | ≥ 50
21 | C[C@@H]1CN(c2ccc(C#N)c(Cl)c2)[C@@H](C)CN1C(=O)c1cnc(N2CCC(CN3CCC(n4ccc5c(N6CCC(=O)NC6=O)cncc54)CC3)CC2)cn1 [EAR147, 2-Chloro-4-((2S,5R)-4-(5-(4-((4-(4-(2,4-dioxotetrahydropyrimidin-1(2H)-yl)-1H-pyrrolo[2,3-c]pyridin-1-yl)piperidin-1-yl)methyl)piperidin-1-yl)pyrazine-2-carbonyl)-2,5-dimethylpiperazin-1-yl)benzonitrile] | ≥ 50
